This is an account of results in US6673793B2, “Oxazinoquinolones useful for the treatment of viral infections” (Pharmacia & Upjohn Co., priority 2000, dated 2004).

In one series the target is T1, CMV polymerase (Human cytomegalovirus, UniProt P08546).
T1 construct: made in house; host or cells: recombinant baculovirus-infected SF-9 cells
As to the kind of experiment: HCMV polymerase assay, scintillation proximity assay (SPA), modified version. Type of series: biochemical. The settings on record: modified HCMV polymerase SPA assay: compounds diluted in 100% DMSO, 4.5 mM DTT in polymerase buffer, different lot of CMV polymerase; read-out: CMV polymerase IC50. Summed up:
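Baculovirus/SF-9-expressed HCMV polymerase in SPA with 90 nM ^3H-dTTP and 6 nM biotinylated poly(dA)-oligo(dT), pH 7.5 HEPES/KCl/MgCl2/BSA, with or without 2 mM CHAPS. Runs 30 min at 25 C. or 37 C., EDTA stop, streptavidin-SPA beads counted; IC50 by linear regression. Modified version: compounds diluted in 100% DMSO rather than 50%, plus 4.5 mM DTT.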
(In general: In a scintillation proximity assay essentially only radioactivity close to the scintillant gives light.)

pIC50: −log10 of the molar value.

T1 sequence (P08546 whole entry): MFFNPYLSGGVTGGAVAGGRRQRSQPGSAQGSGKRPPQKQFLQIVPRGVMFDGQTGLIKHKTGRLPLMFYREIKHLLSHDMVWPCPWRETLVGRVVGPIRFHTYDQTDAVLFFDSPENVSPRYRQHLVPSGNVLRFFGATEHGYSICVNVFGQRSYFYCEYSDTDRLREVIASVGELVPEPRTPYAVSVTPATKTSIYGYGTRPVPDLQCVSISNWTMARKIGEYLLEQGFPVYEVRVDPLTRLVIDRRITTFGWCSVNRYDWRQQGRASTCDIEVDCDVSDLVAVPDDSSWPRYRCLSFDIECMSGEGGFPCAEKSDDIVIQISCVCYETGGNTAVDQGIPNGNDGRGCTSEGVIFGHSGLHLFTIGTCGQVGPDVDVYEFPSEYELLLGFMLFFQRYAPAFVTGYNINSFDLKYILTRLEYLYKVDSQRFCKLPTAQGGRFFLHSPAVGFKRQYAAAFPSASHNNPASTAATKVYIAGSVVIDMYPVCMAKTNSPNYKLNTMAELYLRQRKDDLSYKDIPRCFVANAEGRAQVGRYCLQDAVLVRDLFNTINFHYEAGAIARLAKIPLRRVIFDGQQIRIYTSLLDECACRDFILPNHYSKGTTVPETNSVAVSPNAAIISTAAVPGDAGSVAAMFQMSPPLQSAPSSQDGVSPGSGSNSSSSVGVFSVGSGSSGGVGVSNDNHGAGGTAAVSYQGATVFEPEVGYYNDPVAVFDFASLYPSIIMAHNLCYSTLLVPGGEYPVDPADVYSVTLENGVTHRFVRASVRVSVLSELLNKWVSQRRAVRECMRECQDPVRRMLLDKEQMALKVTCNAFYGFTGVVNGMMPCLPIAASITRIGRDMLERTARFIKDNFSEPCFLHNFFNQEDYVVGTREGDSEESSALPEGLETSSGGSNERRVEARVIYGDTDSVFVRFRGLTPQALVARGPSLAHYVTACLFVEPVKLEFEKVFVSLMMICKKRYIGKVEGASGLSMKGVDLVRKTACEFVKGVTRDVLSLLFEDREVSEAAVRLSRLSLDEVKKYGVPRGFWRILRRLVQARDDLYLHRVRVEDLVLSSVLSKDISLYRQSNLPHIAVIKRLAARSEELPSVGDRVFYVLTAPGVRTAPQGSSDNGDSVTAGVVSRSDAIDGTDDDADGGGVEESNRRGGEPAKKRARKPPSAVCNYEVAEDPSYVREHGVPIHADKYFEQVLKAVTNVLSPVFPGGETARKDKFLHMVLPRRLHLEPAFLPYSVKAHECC

Regarding `O=C(NCc1ccc(Cl)cc1)c1cn2c3c(cc(CN4CCOCC4)cc3c1=O)OC(c1cccc(CO)c1)C2` (stereo not drawn) [Example 62, N-(4-Chlorobenzyl)-2-[3-(hydroxymethyl)phenyl]-9-(morpholin-4-ylmethyl)-7-oxo-2,3-dihydro-7H-[1,4]oxazino[2,3,4-ij]quinoline-6-carboxamide], the melting point (usually the temperature, or range, at which the solid turns liquid) was in the range of 229 to 233 °C. Further, the negative logarithm of the IC50 (pIC50) (commonly the IC50 on a negative log10 scale, so that one unit is a factor of ten) on CMV polymerase was 6.42.
On the same counts, the results for `O=C(NCc1ccc(Cl)cc1)c1cn2c3c(cc(CN4CCOCC4)cc3c1=O)OC(c1cccc(O)c1)C2` (stereo not drawn) [Example 63, N-(4-Chlorobenzyl)-2-(3-hydroxyphenyl)-9-(4-morpholinylmethyl)-7-oxo-2,3-dihydro-7H-[1,4]oxazino[2,3,4-ij]quinoline-6-carboxamide] are 213 °C (dec.) and 6.54.
On the same counts, the results for `O=C(NCc1ccc(Cl)cc1)c1cn2c3c(cc(CN4CCOCC4)cc3c1=O)OC(c1ccc(O)cc1)C2` (stereo not drawn) [Example 65, N-(4-Chlorobenzyl)-2-(4-hydroxyphenyl)-9-(morpholin-4-ylmethyl)-7-oxo-2,3-dihydro-7H-[1,4]oxazino[2,3,4-ij]quinoline-6-carboxamide] are more than 260 °C and 6.35.
As for `COCOCc1ccccc1C1Cn2cc(C(=O)NCc3ccc(Cl)cc3)c(=O)c3cc(CN4CCOCC4)cc(c32)O1` (stereo not drawn) [Example 66, N-(4-Chlorobenzyl)-2-{2-[(methoxymethoxy)methyl]phenyl}-9-(morpholin-4-ylmethyl)-7-oxo-2,3-dihydro-7H-[1,4]oxazino[2,3,4-ij]quinoline-6-carboxamide], the melting point lay within 202.5 to 204.5 °C. Also, the negative logarithm of the IC50 (pIC50) on CMV polymerase is 6.23.
As for `COCOCc1ccc(C2Cn3cc(C(=O)NCc4ccc(Cl)cc4)c(=O)c4cc(CN5CCOCC5)cc(c43)O2)cc1` (stereo not drawn) [Example 67, N-(4-Chlorobenzyl)-2-{4-[(methoxymethoxy)methyl]phenyl}-9-(morpholin-4-ylmethyl)-7-oxo-2,3-dihydro-7H-[1,4]oxazino[2,3,4-ij]quinoline-6-carboxamide], the melting point is 236 to 239 °C. The pIC50 on CMV polymerase is 5.77.
On the same counts, the results for `O=C(NCc1ccc(Cl)cc1)c1cn2c3c(cc(CN4CCOCC4)cc3c1=O)OC(c1ccccc1CO)C2` (stereo not drawn) [Example 69, N-(4-Chlorobenzyl)-2-[2-(hydroxymethyl)phenyl]-9-(morpholin-4-ylmethyl)-7-oxo-2,3-dihydro-7H-[1,4]oxazino[2,3,4-ij]quinoline-6-carboxamide] are 218 to 223 °C (dec.) and 6.48.
